Values belong to the molecule of their own block, whether it stands above or below them.
Columns and labels:
thermal nociception [1] = conditions: cited from earlier work
FAAH = target: T1, FAAH (Homo sapiens, UniProt O00519); conditions: reported; cited from earlier work
T1 sequence (O00519 1-579): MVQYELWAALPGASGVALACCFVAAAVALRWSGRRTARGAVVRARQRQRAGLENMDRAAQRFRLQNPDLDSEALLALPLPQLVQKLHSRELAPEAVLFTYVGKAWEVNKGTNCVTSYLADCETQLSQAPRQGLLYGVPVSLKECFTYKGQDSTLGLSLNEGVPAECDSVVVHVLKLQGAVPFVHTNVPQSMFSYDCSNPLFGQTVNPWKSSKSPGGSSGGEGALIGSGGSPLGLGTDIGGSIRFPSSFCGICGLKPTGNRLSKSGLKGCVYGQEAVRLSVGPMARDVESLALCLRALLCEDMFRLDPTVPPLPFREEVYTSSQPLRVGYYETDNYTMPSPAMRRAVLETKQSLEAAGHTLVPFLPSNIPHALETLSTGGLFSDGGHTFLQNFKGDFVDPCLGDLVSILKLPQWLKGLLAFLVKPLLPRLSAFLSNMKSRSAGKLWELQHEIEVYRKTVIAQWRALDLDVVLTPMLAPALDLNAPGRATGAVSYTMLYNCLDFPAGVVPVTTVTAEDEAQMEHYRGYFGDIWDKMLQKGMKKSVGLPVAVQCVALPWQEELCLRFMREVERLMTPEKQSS

thermal nociception [2] = conditions: rats; WO 04/033652; cited from earlier work
spasticity = conditions: Baker 2001; cited from earlier work
[3] = rat; Kathuria 2003; cited from earlier work
anxiety = conditions: rats; Kathuria 2003; cited from earlier work
[4] = Pharmacokinetic testing, intravenous bolus in rats; assay type: in vivo; conditions: rat, plasma, 2 mg/kg, male Sprague Dawley rats, 1 mg/mL in 2 mL/kg
Description: For each test compound, two male Sprague Dawley Rats (Charles River Laboratories; approx. 300 g body weight) were used. Animals were individually housed, provided food and water ad libitum, and were maintained on a 12 h light and dark cycle. Animals received from the vendor were surgically cannulated by the vendor with right jugular vein and left carotid artery catheters. Animals were acclimatized for at least 5 days after receipt from the vendor prior to investigations.
Animals received a bolus intravenous dose of the test compound at a dose of 1 mg/mL in a volume of 2 mL/kg via the right jugular vein catheter. The intravenous dosing solution was prepared in 55% pharmasolve, 20% cremophor, and […] physiological saline, or 100% saline adjusted to pH 8.0.
Following intravenous administration, blood was collected (sampled 0.35 mL per time point from the left carotid artery catheter) at 0.083, 0.25, 0.5, 1, 2, 4, and 6 h post-dose. Blood was collected into tubes containing EDTA and stored at 4° C. for not more than 2 h. The samples were centrifuged at 10,000 rpm in a micro-centrifuge for 5 min to obtain a plasma fraction. The plasma was stored at between −20 and −80° C. until processed for analysis. These samples were analyzed by LC-MS/MS to determine the plasma level of the compound.
Plasma level vs. time plots were created and WinNonlin (Pharsight Corp.) was used to analyze the data. A non-compartmental pharmacokinetic model was used to determine the pharmacokinetic parameters, including clearance, volume of distribution (Vd), and half-life (t1/2).

[5] = Solubility determination in water; assay type: physicochemical; conditions: thermodynamic from solid; in water at 5, 1 and 0.1 mg/mL; pH of resulting solutions 7-8.5
Description: Physical Chemical Properties
Solubility determinations were made by mixing the test compound in water at 5 mg/mL, 1 mg/mL, and 0.1 mg/mL concentrations. The pH of the resulting solutions was 7-8.5.

[6] = tested on: acute thermal nociception; conditions: rats; WO 02/087569; cited from earlier work
neuropathic pain = conditions: rats; WO 02/087569; cited from earlier work

Compound: O=C(CCCCCCc1ccccc1)c1ncc(-c2ccccn2)o1 [OL-135]
analgesic activity in the hot plate test (thermal nociception [1]; rats, WO 04/033652): analgesic activity | inhibition of FAAH (FAAH): potent inhibitor | analgesic activity in the tail emersion test (thermal nociception [2]): analgesic activity

Compound: CCCCCCCCCCCCCCCCS(=O)(=O)F [AM374]
spasticity in CREAE mice (spasticity): significantly reduce spasticity

Compound: NC(=O)c1cccc(-c2cccc(OC(=O)NC3CCCCC3)c2)c1 [URB-597]
analgesic efficacy in the formalin test [3]: analgesic efficacy | analgesic efficacy in the hot plate test (thermal nociception [1]; rat, Kathuria 2003): analgesic efficacy | efficacy in the zero plus maze model of anxiety (anxiety): efficacy

Vd [4]: 22.9 L/kg | clearance [4]: 63.3 mL/min/kg | half-life [4]: 209 min | solubility [5]: < 100 µg/mL
Compound: O=C(CCCCCCc1ccccc1)c1ncc(-c2ccco2)o1 [Comp. Ex. 2, 1-(5-Furan-2-yl-oxazol-2-yl)-7-phenyl-heptan-1-one, reference compound]

Compound: Cc1nc(-c2ccccc2)c(-c2ccccc2)n1CCCCCCNC(=O)Oc1ccccc1F [BMS-1]
analgesic effect in the Hargraves test [6]: analgesic effect | analgesic effect in the Chung spinal nerve ligation model (neuropathic pain): analgesic effect

Vd [4]: 27.3 L/kg | clearance [4]: 98.3 mL/min/kg | half-life [4]: 194 min | solubility [5]: < 100 µg/mL
Compound: O=C(CCCCCCc1ccccc1)c1ncc(-c2ccccn2)o1 [Comp. Ex. 1, 7-Phenyl-1-(5-pyridin-2-yl-oxazol-2-yl)-heptan-1-one, reference compound]

Source: US7915270B2, “Oxazole ketones as modulators of fatty acid amide hydrolase” (The Scripps Research Institute, priority 2006, dated 2011)
